Measurements reported in ChEMBL document CHEMBL4138114, “Pharmacophore guided discovery of small-molecule interleukin 15 inhibitors” (Eur J Med Chem, 2017).
Calls of active or inactive are those of the source. No cut-off for these calls is given here.

Key:
Format in all cases: cell-based
[1] = target: T1, IL15-IL15 receptor (Homo sapiens) (UniProt P40933+Q13261); test: Inhibition of IL-15 (unknown origin)/IL-15Ralpha interaction in human PBMC cells assessed as reduction of TNF-alpha synthesis preincubated for 30 mins followed by IL-15 addition measured after 48 hrs by ELISA
PBMC = test: Cytotoxicity against human PBMC cells up to 200 uM after 48 hrs by CellTiter 96 AQueous one solution cell proliferation assay
[2] = target: T1, IL15-IL15 receptor (Homo sapiens); test: Inhibition of IL-15 (unknown origin)/IL-15Ralpha interaction in human PBMC cells assessed as reduction of IL-17 synthesis preincubated for 30 mins followed by IL-15 addition measured after 48 hrs by ELISA

T1 sequence (P40933 49-162 limits assumed): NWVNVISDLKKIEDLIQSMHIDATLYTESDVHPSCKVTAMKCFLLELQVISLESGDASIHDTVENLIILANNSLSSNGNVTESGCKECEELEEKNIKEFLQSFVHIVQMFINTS
T1 sequence (Q13261 31-267 partner limits assumed): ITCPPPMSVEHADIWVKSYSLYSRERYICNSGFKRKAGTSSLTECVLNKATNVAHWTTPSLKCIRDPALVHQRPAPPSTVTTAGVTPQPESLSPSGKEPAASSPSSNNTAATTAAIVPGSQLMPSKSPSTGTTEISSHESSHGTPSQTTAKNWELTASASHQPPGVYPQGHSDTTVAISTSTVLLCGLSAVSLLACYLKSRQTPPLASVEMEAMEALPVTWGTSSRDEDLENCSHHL

SMILES	TNF-alpha synthesis inhibition (active/not active) [1]	inhibition [2]	Activity (PBMC)
O=C(O)c1ccc(CSc2nnnn2C2CCCCC2)cc1	inactive	inactive	Non-Toxic
CCC(=O)Nc1ccc(Cc2ccc(NC(=O)CC)c(C(=O)O)c2)cc1C(=O)O	inactive	inactive	Non-Toxic
COc1ccc(-n2nnnc2S(=O)(=O)Cc2ccc(C(=O)O)cc2)cc1	inactive	inactive	Non-Toxic
NCCC(=O)N[C@@H](Cc1cnc[nH]1)C(=O)O [CARNOSINE]			Non-Toxic
O=C(O)c1ccc(CSc2nnnn2-c2ccc(F)cc2)cc1	Active	Active	Non-Toxic
O=C(O)CCC(=O)NCc1ccc(C(=O)O)cc1	inactive	inactive	Non-Toxic
COC(=O)c1ccc(O)c(C)c1O	Active	Active	Non-Toxic
NC(N)=NC(=O)CNCC(=O)N=C(N)N	Active	Active	Non-Toxic
NCCC(=O)NCCc1c[nH]cn1 [CARCININE]	Active	Active	Non-Toxic
C/C(C/C(C)=N/N=C(N)N)=N\N=C(N)N	Active	Active	Non-Toxic
NC(CCCCCCC(N)C(=O)O)C(=O)O (configuration not stated)	Active	Active	Non-Toxic
Cc1nnc(SCC2=C(C(=O)O)N3C(=O)[C@@H](NC(=O)Cn4cnnn4)[C@H]3SC2)s1 [CEFAZOLIN]	Active	Active	Non-Toxic
O=C(O)Cc1ccc(NC(=O)C2CC=CCC2C(=O)O)cc1 (configuration not stated)	inactive	inactive	Non-Toxic

Second part, led by results:

TNF-alpha synthesis inhibition (active/not active) [1]	inhibition [2]	SMILES	Activity (PBMC)
Active	Active	O=C(O)CCC(=O)Nc1cc(NC(=O)CCC(=O)O)cc(C(=O)O)c1	Non-Toxic
inactive	inactive	O=C(O)c1ccc(CNC(=O)C2CC=CCC2C(=O)O)cc1 (configuration not stated)	Non-Toxic
inactive	inactive	NCCC(=O)N[C@@H](Cc1c[nH]cn1)C(=O)O	
Active	Active	COC(=O)CCC(=O)NCc1ccc(C(=O)OC)cc1	Non-Toxic
inactive	inactive	COc1ccc(S(=O)(=O)Nc2cccc(C(=O)O)c2)cc1C(=O)O	Non-Toxic
Active	Active	O=C(O)c1ccc(CNC(=O)C2C3CCC(C3)C2C(=O)O)cc1 (configuration not stated)	Non-Toxic
Active	Active	O=C(O)c1ccc(CNC(=O)C2CCCCC2C(=O)O)cc1 (configuration not stated)	Non-Toxic
